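Following 48 hours of exposure in 96-well plates, responses at five concentrations were used to interpolate endpoints linearly. GI50 marks 50% less growth.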 Calls of active or inactive are those of the source. No stated cut-off is given here; in the data, active = GI50 up to about 1.1 µM and inactive = higher.
Legend:
Test in all cases: growth of human tumour cells (NCI), 48 h
[1] = system: HCC 2998
[2] = system: SF-295
[3] = system: DU-145
[4] = system: ACHN
[5] = system: LOX IMVI
[6] = system: HL-60
[7] = system: SK-MEL-5
[8] = system: MCF7
[9] = system: SF-268
[10] = system: T47D
[11] = system: PC-3
[12] = system: SK-MEL-2
[13] = system: NCI/ADR-RES
[14] = system: RPMI-8226
[15] = system: OVCAR-3
[16] = system: MDA-MB-231
[17] = system: Hs-578T
[18] = system: U-251
[19] = system: 786-0
[20] = system: HCT-116
[21] = system: CAKI-1
[22] = system: OVCAR-5
[23] = system: IGROV-1
[24] = system: A549
[25] = system: SK-MEL-28
[26] = system: SF-539
[27] = system: EKVX
[28] = system: TK-10
[29] = system: HCT-15
[30] = system: HOP-62
[31] = system: HOP-92
[32] = system: NCI-H460
[33] = system: SN12C
[34] = system: M14
[35] = system: KM12
[36] = system: MDA-MB-435
[37] = system: Malme-3M
[38] = system: MOLT-4
[39] = system: HT-29
[40] = system: UACC-62
[41] = system: UACC-257
[42] = system: COLO 205
[43] = system: OVCAR-8
[44] = system: SW-620
[45] = system: RXF 393
[46] = system: CCRF-CEM
[47] = system: MDA-N
[48] = system: K562
[49] = system: OVCAR-4
[50] = system: NCI-H23
[51] = system: SK-OV-3
[52] = system: SR
[53] = system: NCI-H522
[54] = system: SNB-19
[55] = system: NCI-H226
[56] = system: A498
[57] = system: SNB-75
[58] = system: UO-31
[59] = system: BT-549

## N/N=C1/CCCc2nonc21
[1]
  GI50: > 100 µM (inactive)
[2]
  GI50: > 100 µM (inactive)
[3]
  GI50: > 100 µM (inactive)
[4]
  GI50: > 100 µM (inactive)
[5]
  GI50: > 100 µM (inactive)
[6]
  GI50: > 100 µM (inactive)
[7]
  GI50: > 100 µM (inactive)
[8]
  GI50: > 100 µM (inactive)
[9]
  GI50: > 100 µM (inactive)
[10]
  GI50: > 100 µM (inactive)
[11]
  GI50: > 100 µM (inactive)
[12]
  GI50: > 100 µM (inactive)
[13]
  GI50: > 100 µM (inactive)
[14]
  GI50: > 100 µM (inactive)
[15]
  GI50: > 100 µM (inactive)
[16]
  GI50: > 100 µM (inactive)
[17]
  GI50: > 100 µM (inactive)
[18]
  GI50: > 100 µM (inactive)
[19]
  GI50: > 100 µM (inactive)
[20]
  GI50: > 100 µM (inactive)
[21]
  GI50: > 100 µM (inactive)
[22]
  GI50: > 100 µM (inactive)
[23]
  GI50: > 100 µM (inactive)
[24]
  GI50: > 100 µM (inactive)
[25]
  GI50: > 100 µM (inactive)
[26]
  GI50: > 100 µM (inactive)
[27]
  GI50: > 100 µM (inactive)
[28]
  GI50: > 100 µM (inactive)
[29]
  GI50: > 100 µM
[30]
  GI50: > 100 µM (inactive)
[31]
  GI50: > 100 µM (inactive)
[32]
  GI50: > 100 µM (inactive)
[33]
  GI50: > 100 µM (inactive)
[34]
  GI50: > 100 µM (inactive)
[35]
  GI50: > 100 µM (inactive)
[36]
  GI50: > 100 µM (inactive)
[37]
  GI50: > 100 µM (inactive)
[38]
  GI50: > 100 µM (inactive)
[39]
  GI50: > 100 µM (inactive)
[40]
  GI50: > 100 µM (inactive)
[41]
  GI50: > 100 µM (inactive)
[42]
  GI50: > 100 µM (inactive)
[43]
  GI50: > 100 µM (inactive)
[44]
  GI50: > 100 µM (inactive)
[45]
  GI50: > 100 µM (inactive)
[46]
  GI50: > 100 µM (inactive)
[47]
  GI50: > 100 µM (inactive)
[48]
  GI50: > 100 µM (inactive)
[49]
  GI50: > 100 µM (inactive)
[50]
  GI50: > 100 µM (inactive)
[51]
  GI50: > 100 µM (inactive)
[52]
  GI50: > 100 µM (inactive)

## C(=C\C(SCc1ccccc1)SCc1ccccc1)/c1ccccc1
[1]
  GI50: > 10 µM (inactive)
[2]
  GI50: > 10 µM (inactive)
[53]
  GI50: > 10 µM (inactive)
[3]
  GI50: > 10 µM (inactive)
[4]
  GI50: > 10 µM (inactive)
[5]
  GI50: > 10 µM (inactive)
[6]
  GI50: > 10 µM (inactive)
[7]
  GI50: > 10 µM (inactive)
[8]
  GI50: > 10 µM (inactive)
[9]
  GI50: > 10 µM (inactive)
[10]
  GI50: > 10 µM (inactive)
[11]
  GI50: > 10 µM (inactive)
[12]
  GI50: > 10 µM (inactive)
[54]
  GI50: > 10 µM (inactive)
[13]
  GI50: > 10 µM (inactive)
[14]
  GI50: > 10 µM (inactive)
[15]
  GI50: > 10 µM (inactive)
[16]
  GI50: > 10 µM (inactive)
[17]
  GI50: > 10 µM (inactive)
[18]
  GI50: > 10 µM (inactive)
[19]
  GI50: > 10 µM (inactive)
[20]
  GI50: > 10 µM (inactive)
[21]
  GI50: > 10 µM (inactive)
[55]
  GI50: > 10 µM (inactive)
[23]
  GI50: > 10 µM (inactive)
[24]
  GI50: > 10 µM (inactive)
[25]
  GI50: > 10 µM (inactive)
[26]
  GI50: > 10 µM (inactive)
[27]
  GI50: > 10 µM (inactive)
[28]
  GI50: > 10 µM (inactive)
[29]
  GI50: > 10 µM
[30]
  GI50: > 10 µM (inactive)
[31]
  GI50: > 10 µM (inactive)
[32]
  GI50: > 10 µM (inactive)
[33]
  GI50: > 10 µM (inactive)
[34]
  GI50: > 10 µM (inactive)
[56]
  GI50: > 10 µM (inactive)
[35]
  GI50: > 10 µM (inactive)
[37]
  GI50: > 10 µM (inactive)
[38]
  GI50: > 10 µM (inactive)
[39]
  GI50: > 10 µM (inactive)
[40]
  GI50: > 10 µM (inactive)
[41]
  GI50: > 10 µM (inactive)
[42]
  GI50: > 10 µM (inactive)
[43]
  GI50: > 10 µM (inactive)
[44]
  GI50: > 10 µM (inactive)
[45]
  GI50: > 10 µM (inactive)
[46]
  GI50: > 10 µM (inactive)
[57]
  GI50: > 10 µM (inactive)
[47]
  GI50: > 10 µM (inactive)
[48]
  GI50: > 10 µM (inactive)
[49]
  GI50: > 10 µM (inactive)
[58]
  GI50: > 10 µM (inactive)
[50]
  GI50: > 10 µM (inactive)
[51]
  GI50: > 10 µM (inactive)
[52]
  GI50: > 10 µM (inactive)

## O=C1CC[C@@]2(O)[C@H]3Cc4ccc(-c5cccc(O)c5)c5c4[C@@]2(CCN3CC2CC2)[C@H]1O5
[1]
  GI50: 16.4 µM (inactive)
[2]
  GI50: 19.8 µM (inactive)
[53]
  GI50: 16.1 µM (inactive)
[3]
  GI50: 22.6 µM (inactive)
[4]
  GI50: 25.4 µM (inactive)
[5]
  GI50: 12.9 µM (inactive)
[6]
  GI50: 0.0553 µM (active)
[7]
  GI50: 16.3 µM (inactive)
[8]
  GI50: 16.9 µM (inactive)
[9]
  GI50: 22.3 µM (inactive)
[11]
  GI50: 20.3 µM (inactive)
[12]
  GI50: 1.51 µM (inactive)
[54]
  GI50: 4.3 µM (inactive)
[13]
  GI50: 15.8 µM (inactive)
[14]
  GI50: 23.3 µM (inactive)
[15]
  GI50: 22 µM (inactive)
[16]
  GI50: 22.4 µM (inactive)
[18]
  GI50: 8.38 µM (inactive)
[19]
  GI50: 18.2 µM (inactive)
[20]
  GI50: 11.4 µM (inactive)
[21]
  GI50: 37.6 µM (inactive)
[22]
  GI50: 13.6 µM (inactive)
[55]
  GI50: 29.3 µM (inactive)
[23]
  GI50: 23.6 µM (inactive)
[59]
  GI50: 21.6 µM (inactive)
[24]
  GI50: 9.55 µM (inactive)
[25]
  GI50: 32.2 µM (inactive)
[26]
  GI50: 18.9 µM (inactive)
[27]
  GI50: 11.6 µM (inactive)
[28]
  GI50: 1.01 µM (active)
[29]
  GI50: 23.9 µM
[30]
  GI50: 24.8 µM (inactive)
[31]
  GI50: 25.7 µM (inactive)
[32]
  GI50: 0.839 µM (active)
[33]
  GI50: 17.6 µM (inactive)
[34]
  GI50: 12.1 µM (inactive)
[56]
  GI50: 21.3 µM (inactive)
[35]
  GI50: 10 µM (inactive)
[36]
  GI50: 14 µM (inactive)
[38]
  GI50: 22.9 µM (inactive)
[39]
  GI50: 11.3 µM (inactive)
[40]
  GI50: 10.7 µM (inactive)
[41]
  GI50: 1.01 µM (active)
[42]
  GI50: 21 µM (inactive)
[43]
  GI50: 19.6 µM (inactive)
[44]
  GI50: > 35.1 µM (inactive)
[45]
  GI50: 17.3 µM (inactive)
[46]
  GI50: < 0.01 µM (active)
[47]
  GI50: 14.6 µM (inactive)
[48]
  GI50: 21.9 µM (inactive)
[49]
  GI50: 23.3 µM (inactive)
[58]
  GI50: 14.1 µM (inactive)
[50]
  GI50: 27 µM (inactive)
[52]
  GI50: 26.3 µM (inactive)
